System: S. aureus
Assay: MIC, CLSI microdilution
Format: cell-based
Settings: 2% solution serially diluted

Structure (SMILES): [H]/N=C(\N/C(=N/[H])NCCCCCCNC(=N)NC(=N)Nc1ccc(Cl)cc1)Nc1ccc(Cl)cc1 [Chlorhexidine, chlorhexidine gluconate]
- Chlorhexidine MIC: 19.6 μg/ml chlorhexidine
